Measurements as given in patent US11585819B2, “Bistrifilate-based fluorogenic probes for detection of superoxide anion radical” (THE UNIVERSITY OF HONG KONG, priority 2014, dated 2023).
Like-named read-outs stand apart in the source and are kept apart here.

Assays:
[1] = test system: Hela (human cervical epithelial cancer cells), BV-2 (mouse microglia), RAW264.7 (mouse macrophages); experiment: Confocal imaging with HKSOX-2 of O2^•− induced by mitochondrial respiratory inhibitors; assay type: cell-based; design: probe fluorescence response upon induction of mitochondrial O2^•−: dose or concentration left out as unconfirmed
Method: We also tested HKSOX-2 (5 μM) in detection of O2^•− induced by mitochondrial respiratory inhibitors (30 min treatment): antimycin A (complex III inhibitor; 10 μM), rotenone (complex I inhibitor; 10 μM) and FCCP ([…]; 10 μM). To validate the inhibitor effects, three different types of cell were used: Hela (human cervical epithelial cancer cells), BV-2 (mouse microglia), and RAW264.7 (mouse macrophages).
(§1) In each group, upper: fluorescence images; lower: fluorescence images merged with bright field images.

[2] = test system: HCT116 (human colon cancer cells), RAW264.7 (mouse macrophages), BV-2 (mouse microglia); experiment: Confocal imaging with HKSOX-1r of O2^•− induced by mitochondrial respiratory inhibitors; assay type: cell-based
Method: To validate the inhibitor effects, three different types of cell were used: HCT116 (human colon cancer cells), RAW264.7 (mouse macrophages), and BV-2 (mouse microglia).
as §1
(left) Untreated cells incubated with probe alone for 30 min. (right) Cells co-incubated with probe and antimycin A (5 μM) for 30 min. Upper: fluorescence images; lower: fluorescence images merged with bright field images.

[3] = test system: mouse macrophages (RAW264.7 cells); experiment: Confocal imaging of endogenous O2^•− with HKSOX-2m in PMA-activated macrophages; assay type: cell-based; conditions: 30 min; for effect on HKSOX-2m fluorescence in PMA-stimulated macrophages: Mdivi-1 100 μM, Gö6983 100 nM
Method: (§2) We assessed the application of HKSOX-2m (2 μM) in confocal imaging of O2^•− in different types of cell. For detection of endogenous O2^•−, two different cell types were used: mouse macrophages (RAW264.7 cells) and mouse microglia (BV-2 cells). PMA (phorbol-12-myristate-13-acetate), a PKC activator and acute O2^•− inducer, was used to activate macrophages. The chemical scavenger TEMPOL (4-hydroxy-TEMPO; 300 μM) was used to remove O2^•− in activated macrophages. Mdivi-1 (100 μM), a Drp-1 (dynamin-related protein 1) inhibitor that inhibits mitochondrial fission and subsequent mitochondrial O2^•− production, was used to block mitochondrial O2^•− formation. Additionally, Gö6983 (100 nM), a PKC inhibitor, was used to abolish PMA-mediated effects in O2^•− induction.

[4] = test system: mouse microglia (BV-2 cells); experiment: Confocal imaging of endogenous O2^•− with HKSOX-2m in PMA-activated microglia; assay type: cell-based; conditions: 30 min; for effect on HKSOX-2m fluorescence in PMA-stimulated microglia: Mdivi-1 100 μM, Gö6983 100 nM
Method: as §2

[5] = test system: RAW264.7 mouse macrophages; experiment: Confocal imaging of endogenous O2^•− with HKSOX-1r in LPS/IFN-γ activated macrophages; assay type: cell-based
Method: We assessed the application of HKSOX-1r in confocal imaging of O2^•− in different types of cell. For detection of endogenous O2^•−, we used mouse macrophages (RAW264.7 cells) as a cellular model. Bacterial lipopolysaccharide (LPS from Salmonella typhimurium; 500 ng/mL) and the proinflammatory cytokine interferon-γ (IFN-γ from mouse; 50 ng/mL) were used to activate macrophages. […] Additionally, the O2^•− decomposition catalyst FeTMPyP (50 μM) and chemical scavenger TEMPOL (4-hydroxy-TEMPO; 300 μM) were used to remove O2^•− in activated macrophages.
The cells were co-stained with mitochondrial dye MitoTracker Red (50 nM) and nuclear DNA dye Hoechst 33342 (150 ng/mL) for 30 min. Merged: all fluorescence images merged. (a) Untreated cells; (b) cells stimulated with LPS (500 ng/mL) and IFN-γ (50 ng/mL) for 14 h, followed by HKSOX-1r staining for 30 min; (c) cells co-treated with LPS/IFN-γ and gp91ds-tat (2 μM) for 14 h, followed by HKSOX-1r staining (30 min); (d) cells stimulated with LPS/IFN-γ for 14 h, followed by co-incubation of HKSOX-1r and FeTMPyP (50 μM) for 30 min; (e) cells stimulated with LPS/IFN-γ for 14 h, followed by co-incubation of HKSOX-1r and TEMPOL (300 μM) for 30 min.

[6] = Fluorescence response of probe to O2^•− generated by xanthine/xanthine oxidase and to other oxidants, reductants, esterase and GSH in phosphate buffer; conditions: 1 μM probe
Method: The stock solution of HKSOX-1 (10 mM) is diluted in 0.1 M potassium phosphate buffer at pH 7.4 to obtain a 10 μM solution, with excitation and emission spectra at 509 nm and 534 nm, respectively. As expected, the probe HKSOX-1 was non-fluorescent (FIG. 1).
The stock solution of HKSOX-2 (1 mM) is diluted in 0.1 M potassium phosphate buffer at pH 7.4 to obtain a 1 μM solution, with excitation and emission spectra at 535 nm and 562 nm, respectively.

[7] = test system: BV-2 mouse microglial cells; experiment: Confocal imaging comparison of HKSOX-2m and MitoSOX Red with multiple superoxide inducers, co-staining with MitoTracker Green and Hoechst; assay type: cell-based; conditions: for fluorescence with various stimulants: 40 min; for fluorescence turn-on response: Ex 543 nm
Method: To further validate the performance of HKSOX-2m as a mitochondria-targeting superoxide probe, we conducted confocal imaging of HKSOX-2m with multiple superoxide inducers in BV-2 mouse microglial cells (FIG. 11), and compared HKSOX-2m's performance with that of MitoSOX Red™ (a widely used commercial fluorescent probe for mitochondrial superoxide detection; Invitrogen), by using the same drugs as stimulants (FIG. 12). Briefly, BV-2 cells were co-incubated for 40 min with probes (HKSOX-2m or MitoSOX Red™) and general superoxide inducers (PMA and zymosan, which elicit superoxide production from multiple superoxide sources including mitochondria) or specific mitochondrial superoxide inducers (diethyl succinate, diethyl malonate, and rotenone, which target the mitochondrial respiratory chain complexes). […] Slight spatial shifts in fluorescence signal were occasionally observed in the HKSOX-2m and MitoTracker Green channels, which could be accounted for by mitochondrial dynamics and time lag in confocal laser scanning for each channel. […] In fact, fluorescence distribution of the mitochondrial dye MitoTracker Green (Ex 488; Em 505 nm long-pass) was grossly distorted in the presence of MitoSOX Red™ (due to its broad tailing in emission spectrum), resulting in a loss of mitochondrial morphology.

[8] = test system: BV-2 mouse microglial cells; conditions: MitoSOX Red 5 μM (maximal dose according to manufacturer's protocol), extended incubation; cited from earlier work
[9] = TEMPOL 300 μM, readout HKSOX-2m 2 μM
[10] = 30 min, antimycin A, rotenone, FCCP 5 μM, malonic acid 500 μM, readout HKSOX-1r 2 μM
[11] = 30 min, antimycin A, rotenone, FCCP 10 μM, readout HKSOX-2

N#CC(C#N)=NNc1ccc(OC(F)(F)F)cc1 [FCCP]
degree of efficacy in inducing mitochondrial O2^•− production (rank order) [1]: antimycin A>FCCP>>rotenone | degree of efficacy in inducing mitochondrial O2^•− production (rank order) [2]: antimycin A>FCCP>>rotenone>>malonic acid

COc1ccc2c(c1)c(C1=C(c3c[nH]c4ccccc34)C(=O)NC1=O)cn2CCCN(C)C [Gö6983]
effect on HKSOX-2m fluorescence in PMA-stimulated macrophages [3]: reduced to near basal level | effect on HKSOX-2m fluorescence in PMA-stimulated microglia [4]: reduced to near basal level

COC(=O)CN(CC(=O)OC)C(=O)c1ccc2c(c1)C(=O)OC21c2cc(F)c(OS(=O)(=O)C(F)(F)F)c(F)c2Oc2c1cc(F)c(OS(=O)(=O)C(F)(F)F)c2F [HKSOX-1r]
probe fluorescence in stimulated macrophages relative to untreated ones ([5]; HKSOX-1r 2 μM, 30 min staining, LPS 500 ng/mL and IFN-γ 50 ng/mL for 14 h): much stronger fluorescence signals | probe fluorescence response upon induction of mitochondrial O2^•− ([2]; HKSOX-1r at 2 μM, 30 min): strong fluorescence response

CCOC(=O)CCCN1c2cc3c(cc2C(C)CC1(C)C)C1(OC(=O)c2ccccc21)c1cc(F)c(OS(=O)(=O)C(F)(F)F)c(F)c1O3 (stereo not drawn) [HKSOX-2]
probe fluorescence response upon induction of mitochondrial O2^•− ([1]; 30 min): strong fluorescence response | enhancement in fluorescence intensity upon O2^•− ([6]; 10 equiv of O2^•− generated by X/XO system, 15 min, pH 7.4): > 23 fold | increase in fluorescence signals by other oxidants, reductants, esterase and GSH ([6]; 10 equiv of H2O2, NO, 1O2, ROO•, TBHP, •OH, ONOO−, HOCl, Fe2+, ascorbic acid, 1,4-hydroquinone, esterase 10 U/mL, GSH 5 mM): negligible increase

CC1CC(C)(C)N(CCCC(=O)N2CCN(C(=O)CCCC[P+](c3ccccc3)(c3ccccc3)c3ccccc3)CC2)c2cc3c(cc21)C1(OC(=O)c2ccccc21)c1cc(F)c(OS(=O)(=O)C(F)(F)F)c(F)c1O3 (stereo not drawn) [HKSOX-2m]
fluorescence with various stimulants ([7]; HKSOX-2m 2 μM, PMA, zymosan, diethyl succinate, diethyl malonate, rotenone): moderate to strong fluorescence | fluorescence turn-on response ([7]; HKSOX-2m working dose 2 μM, Em 559-623 nm band-pass): highly efficient | probe fluorescence in PMA-stimulated macrophages relative to untreated ones ([3]; HKSOX-2m 2 μM, PMA 200 ng/mL): much stronger fluorescence signals | probe fluorescence in PMA-stimulated microglia relative to untreated ones ([4]; HKSOX-2m 2 μM, PMA 200 ng/mL): much stronger fluorescence signals

COc1cc(-n2c(=S)[nH]c3ccccc3c2=O)c(Cl)cc1Cl [Mdivi-1]
effect on HKSOX-2m fluorescence in PMA-stimulated macrophages [3]: reduced to near basal level | effect on HKSOX-2m fluorescence in PMA-stimulated microglia [4]: reduced to near basal level

Nc1ccc2c(c1)C(c1ccccc1)N(CCCCCC[P+](c1ccccc1)(c1ccccc1)c1ccccc1)c1cc(N)ccc1-2.[I-] (stereo not drawn) [MitoSOX Red™]
toxicity of the working dose ([7]; MitoSOX Red 4 μM): near-toxic | fluorescence with various stimulants ([7]; MitoSOX Red 4 μM, same stimulants): low to moderate fluorescence | fluorescence turn-on response ([7]; MitoSOX Red working dose 4 μM): rather sluggish | toxicity of the maximal dose [8]: cytotoxic

CC1(C)CC(O)CC(C)(C)N1[O] [TEMPOL, 4-hydroxy-TEMPO]
effect on HKSOX-1r fluorescence in LPS/IFN-γ activated macrophages ([5]; FeTMPyP 50 μM or TEMPOL 300 μM co-incubated with HKSOX-1r for 30 min): substantially attenuated | effect on the PMA-induced surge in O2^•− production [3, 9]: greatly suppressed | effect on the PMA-induced surge in O2^•− production [4, 9]: greatly suppressed

O=C(O)CC(=O)O [malonic acid]
degree of efficacy in inducing mitochondrial O2^•− production (rank order) [2, 10]: antimycin A>FCCP>>rotenone>>malonic acid

C=C(C)[C@H]1Cc2c(ccc3c2O[C@@H]2COc4cc(OC)c(OC)cc4[C@@H]2C3=O)O1 [rotenone]
degree of efficacy in inducing mitochondrial O2^•− production (rank order) [1, 11]: antimycin A>FCCP>>rotenone | degree of efficacy in inducing mitochondrial O2^•− production (rank order) [2, 10]: antimycin A>FCCP>>rotenone>>malonic acid

antimycin A
degree of efficacy in inducing mitochondrial O2^•− production (rank order) [1, 11]: antimycin A>FCCP>>rotenone | degree of efficacy in inducing mitochondrial O2^•− production (rank order) [2, 10]: antimycin A>FCCP>>rotenone>>malonic acid
